Converted amounts (≈) assume the structure as drawn. Like-named read-outs stand apart in the source and are kept apart here.
Experiments:
M. tb, strain H37Rv [1] = experiment: LORA minimum inhibitory concentration assay (hypoxic); assay type: cell-based; conditions: Mycobacterium tuberculosis
M. tb, strain H37Rv [2] = experiment: MABA minimum inhibitory concentration assay (aerobic); assay type: cell-based, Mycobacterium tuberculosis
Leishmania donovani = experiment: L. don amastigote mouse macrophage-based luciferase assay (CDRI); assay type: cell-based; conditions: in mouse macrophages, single test (CDRI)
Trypanosoma cruzi = experiment: T. cruzi growth inhibition on MRC-5 cells (LMPH); assay type: cell-based; conditions: MRC5
[3] = test system: human lung fibroblasts (MRC-5 cells); experiment: cytotoxicity toward MRC-5 cells (LMPH); assay type: cell-based; conditions: MRC5
Leishmania infantum = experiment: L. inf growth inhibition in mouse macrophages (LMPH); assay type: cell-based; conditions: Macrophage, mean of at least two determinations
[4] = kinetic aqueous solubility (Method A); assay type: physicochemical; conditions: 20 °C
L. donovani = test system: L. donovani; parameters: method as in PMID 26901446; conditions: cited from earlier work
[5] = parameters: method as in PMID 26901446; conditions: mice, cited from earlier work
[6] = Mycobacterium tuberculosis, H37RV, aerobic, read-out: MIC MABA
[7] = 0.1 M HCl, pH 1, kinetic, 0.1 M HCl (pH 1), read-out: aq solubility pH 1
[8] = water, pH 7, kinetic, water (pH 7), read-out: aq solubility pH 7

Row | SMILES | MIC (M. tb, strain H37Rv [1]) [µM] | MIC (M. tb, strain H37Rv [2]; [6]) [µM] | IC50 (Leishmania donovani) [nM] | IC50 (Trypanosoma cruzi) [nM] | IC50 [3] [nM] | IC50 (Leishmania infantum) [nM] | further results
1 | O=[N+]([O-])c1cn2c(n1)OC(COc1ccc(-c3ccc(F)cn3)cn1)CC2 (stereo not drawn) [compound 105] | 11 (≈ 4.08 µg/mL) | 0.15 (≈ 0.0557 µg/mL) | 60 | 340 | > 64000 | 50000 | –
2 | O=[N+]([O-])c1cn2c(n1)OC(COc1ccc(-c3ccc(F)nc3F)nc1)CC2 (stereo not drawn) [compound 114] | 41 (≈ 16 µg/mL) | 1.2 (≈ 0.467 µg/mL) | 80 | 350 | > 64000 | 52000 | –
3 | O=[N+]([O-])c1cn2c(n1)OC(COc1ncc(-c3ccc(F)nc3)cn1)CC2 (stereo not drawn) [compound 132] | 21 (≈ 7.82 µg/mL) | 0.24 (≈ 0.0894 µg/mL) | 530 | 3300 | > 64000 | > 64000 | –
4 | O=[N+]([O-])c1cn2c(n1)OC(COc1ccc(-c3ccc(F)nc3F)cn1)CC2 (stereo not drawn) [compound 109] | 4.2 (≈ 1.64 µg/mL) | 0.25 (≈ 0.0973 µg/mL) | > 10000 | 290 | > 64000 | 190 | –
5 | O=[N+]([O-])c1cn2c(n1)OC(COc1cnc(-c3ccc(F)cc3)cn1)CC2 (stereo not drawn) [compound 126] | > 128 | 0.15 (≈ 0.0557 µg/mL) | 150 | 4700 | > 64000 | 710 | –
6 | O=C(OCC1CCn2cc([N+](=O)[O-])nc2O1)N1CCN(c2ccc(F)cc2)CC1 (stereo not drawn) [compound 160, (2-Nitro-6,7-dihydro-5H-imidazo[2,1-b][1,3]oxazin-7-yl)methyl 4-(4-fluorophenyl)-piperazine-1-carboxylate] | 22 (≈ 8.92 µg/mL) | 2.5 (≈ 1.01 µg/mL) | > 100000 | 1500 | > 64000 | > 64000 | –
7 | O=[N+]([O-])c1cn2c(n1)OC(COc1cccc(-c3ccc(F)cc3)n1)CC2 (stereo not drawn) [compound 99] | 3 (≈ 1.11 µg/mL) | 1.7 (≈ 0.63 µg/mL) | 310 | 160 | 59000 | 140 | solubility at 15 min [4, 7]: 0.56 µg/mL (≈ 1.51 µM); solubility at 15 min [4, 8]: 0.027 µg/mL (≈ 0.0729 µM)
8 | CC1(COc2ccc(-c3ccc(F)nc3F)nc2)CCn2cc([N+](=O)[O-])nc2O1 (stereo not drawn) [compound 115] | 18 (≈ 7.26 µg/mL) | 0.94 (≈ 0.379 µg/mL) | 110 | 380 | > 64000 | 280 | –
9 | O=[N+]([O-])c1cn2c(n1)OC(COc1cccc(-c3ccc(F)nc3F)n1)CC2 (stereo not drawn) [compound 119] | 10 (≈ 3.89 µg/mL) | 4.3 (≈ 1.67 µg/mL) | 250 | 130 | > 64000 | 6700 | –
10 | CC1(CN2CCC(Oc3ccc(F)cc3)CC2)CCn2cc([N+](=O)[O-])nc2O1 (stereo not drawn) [compound 154] | 48 (≈ 18.7 µg/mL) | 0.23 (≈ 0.0898 µg/mL) | 220 | 590 | > 64000 | 320 | –
11 | O=[N+]([O-])c1cn2c(n1)OC(CN1CCC(c3ccc(F)cc3)CC1)CC2 (stereo not drawn) [compound 147] | 11 (≈ 3.96 µg/mL) | 2.1 (≈ 0.757 µg/mL) | 880 | 2900 | > 64000 | 870 | –
12 | O=[N+]([O-])c1cn2c(n1)OC(COc1cccc(-c3ccc(F)nc3)n1)CC2 (stereo not drawn) [compound 117] | > 128 | – | > 10000 | 130 | 35000 | 44000 | MIC (M. tb, strain H37Rv [2]; Mycobacterium tuberculosis, H37RV, read-out: MIC MABA, aerobic): > 128 µM
13 | CC1(COc2ncc(-c3ccc(F)cc3)cn2)CCn2cc([N+](=O)[O-])nc2O1 (stereo not drawn) [compound 131] | 6.3 (≈ 2.43 µg/mL) | 0.44 (≈ 0.17 µg/mL) | 320 | 430 | 57000 | 290 | –
14 | CC1(CN2CCN(c3ccc(F)cc3)CC2)CCn2cc([N+](=O)[O-])nc2O1 (stereo not drawn) [compound 144] | 6.8 (≈ 2.55 µg/mL) | 0.34 (≈ 0.128 µg/mL) | 700 | 1300 | > 64000 | 730 | –
15 | CC1(COc2ccc(OC(F)(F)F)cc2)Cn2cc([N+](=O)[O-])nc2O1 (racemic) [rac-4] | – | – | – | – | – | – | % inhibition, L. don mouse model (L. donovani; 6.25 mg/kg po daily for 5 d): 99%; ED50 (L. donovani; L. don mouse model): 3.0 mg/kg; AUClast ([5]; intravenous 1 mg/kg): 1.69 μg·;h/mL; C0 ([5]; intravenous 1 mg/kg): 880 ng/mL; CL ([5]; intravenous 1 mg/kg): 9.5 mL/min/kg; Vdss ([5]; intravenous 1 mg/kg): 1.7 L/kg; t1/2 ([5]; intravenous 1 mg/kg): 2.2 h; AUClast ([5]; oral 25 mg/kg): 33.5 μ·h/mL; Cmax ([5]; oral 25 mg/kg): 4100 ng/mL; F (oral bioavailability) ([5]; oral 25 mg/kg): 79%; Tmax ([5]; oral 25 mg/kg): 4.0 h
16 | O=[N+]([O-])c1cn2c(n1)OC(COc1ccc(-c3ccc(F)nc3)cc1)CC2 (stereo not drawn) [compound 55, 7-{[4-(6-Fluoropyridin-3-yl)phenoxy]methyl}-2-nitro-6,7-dihydro-5H-imidazo[2,1-b][1,3]oxazine] | 3.5 (≈ 1.3 µg/mL) | 0.24 (≈ 0.0889 µg/mL) | > 10000 | 27 | > 64000 | 83 | solubility at 15 min [4, 8]: 0.36 µg/mL (≈ 0.972 µM)

Row | SMILES | MIC (M. tb, strain H37Rv [1]) [µM] | MIC (M. tb, strain H37Rv [2]; [6]) [µM] | IC50 (Leishmania donovani) [nM] | IC50 (Trypanosoma cruzi) [nM] | IC50 [3] [nM] | IC50 (Leishmania infantum) [nM] | further results
17 | O=[N+]([O-])c1cn2c(n1)OC(COc1ccc(-c3ccc(F)cc3F)cn1)CC2 (stereo not drawn) [compound 62] | 2.4 (≈ 0.932 µg/mL) | 0.1 (≈ 0.0388 µg/mL) | 70 | 30 | > 64000 | 37 | solubility at 15 min [4, 7]: 1.5 µg/mL (≈ 3.86 µM); solubility at 15 min [4, 8]: 0.13 µg/mL (≈ 0.335 µM)
18 | CC1(COc2ccc(-c3ccc(F)cc3F)nc2)CCn2cc([N+](=O)[O-])nc2O1 (stereo not drawn) [compound 92] | 4.9 (≈ 1.97 µg/mL) | 0.4 (≈ 0.161 µg/mL) | 310 | 270 | > 64000 | 170 | –
19 | CC1(COc2ccc(-c3ccc(OC(F)(F)F)cc3)nc2)CCn2cc([N+](=O)[O-])nc2O1 (stereo not drawn) [compound 96] | 0.88 (≈ 0.396 µg/mL) | 0.05 (≈ 0.0225 µg/mL) | 650 | 250 | > 64000 | 4000 | –
20 | CC1(COCc2ccc(-c3ccc(F)cc3)cc2)CCn2cc([N+](=O)[O-])nc2O1 (stereo not drawn) [compound 27] | 0.61 (≈ 0.242 µg/mL) | 0.085 (≈ 0.0338 µg/mL) | 220 | 840 | > 64000 | 1800 | –
21 | O=C(c1ccc(F)cc1)N1CCN(CC2CCn3cc([N+](=O)[O-])nc3O2)CC1 (stereo not drawn) [compound 157] | > 128 | 46 (≈ 17.9 µg/mL) | 4800 | 11000 | > 64000 | 45000 | –
22 | CC1(COC(=O)N2CCN(c3ccc(F)cc3)CC2)CCn2cc([N+](=O)[O-])nc2O1 (stereo not drawn) [compound 161] | 8.4 (≈ 3.52 µg/mL) | 3.4 (≈ 1.43 µg/mL) | 290 | 3900 | > 64000 | 720 | –
23 | CC1(COCc2ccc(OC(F)(F)F)cc2)CCn2cc([N+](=O)[O-])nc2O1 (stereo not drawn) [compound 21] | 3.3 (≈ 1.28 µg/mL) | 0.55 (≈ 0.213 µg/mL) | 310 | 750 | > 64000 | 300 | –
24 | CC1(COc2ncc(-c3ccc(F)nc3)cn2)CCn2cc([N+](=O)[O-])nc2O1 (stereo not drawn) [compound 133] | 54 (≈ 20.9 µg/mL) | 23 (≈ 8.89 µg/mL) | 1300 | 2900 | > 64000 | 6100 | –
25 | CC1(COc2ccc(-c3ccc(OC(F)(F)F)cc3)cn2)CCn2cc([N+](=O)[O-])nc2O1 (stereo not drawn) [compound 65] | 5.3 (≈ 2.39 µg/mL) | 0.13 (≈ 0.0585 µg/mL) | 260 | 1000 | > 64000 | 3800 | –
26 | O=[N+]([O-])c1cn2c(n1)OC(COCc1ccc(-c3ccc(F)cc3)cc1)CC2 (stereo not drawn) [compound 25, 7-{[(4′-Fluoro[1,1′-biphenyl]-4-yl)methoxy]methyl}-2-nitro-6,7-dihydro-5H-imidazo[2,1-b][1,3]oxazine] | 1.3 (≈ 0.498 µg/mL) | 0.08 (≈ 0.0307 µg/mL) | 20 | 530 | > 64000 | 170 | –
27 | CC1(CN2CCC(c3ccc(F)cc3)CC2)CCn2cc([N+](=O)[O-])nc2O1 (stereo not drawn) [compound 149] | 8.3 (≈ 3.11 µg/mL) | 0.22 (≈ 0.0824 µg/mL) | 1000 | 870 | > 64000 | 320 | –
28 | CC1(COc2ccc(-c3ccc(F)cc3)cc2)CCn2cc([N+](=O)[O-])nc2O1 (stereo not drawn) [compound 52] | 1.4 (≈ 0.537 µg/mL) | 0.085 (≈ 0.0326 µg/mL) | 200 | 350 | > 64000 | 340 | –
29 | O=[N+]([O-])c1cn2c(n1)OC(COc1ccc(-c3ccc(F)cc3)nn1)CC2 (stereo not drawn) [compound 123] | 23 (≈ 8.54 µg/mL) | 0.35 (≈ 0.13 µg/mL) | 70 | 670 | > 64000 | 8400 | –
30 | O=[N+]([O-])c1cn2c(n1)OC(COc1cnc(-c3ccc(F)cc3)nc1)CC2 (stereo not drawn) [compound 139] | 20 (≈ 7.43 µg/mL) | 0.27 (≈ 0.1 µg/mL) | 70 | 260 | 62000 | 210 | solubility at 15 min [4, 8]: 0.59 µg/mL (≈ 1.59 µM)
31 | CC1(COc2ccc(-c3ccc(F)nc3)cc2)CCn2cc([N+](=O)[O-])nc2O1 (stereo not drawn) [compound 56] | 2.7 (≈ 1.04 µg/mL) | 0.29 (≈ 0.111 µg/mL) | 120 | 300 | > 64000 | 160 | –
32 | O=[N+]([O-])c1cn2c(n1)OC(COc1ccc(-c3ccc(OC(F)(F)F)cc3)cn1)CC2 (stereo not drawn) [compound 64] | 0.47 (≈ 0.205 µg/mL) | 0.02 to 0.04 (≈ 0.00873 to 0.0175 µg/mL) | 50 | 120 | > 64000 | 350 | MIC (M. tb, strain H37Rv [2]; aerobic, read-out: MIC MABA): 0.027 µM (≈ 0.0118 µg/mL)

— PMC7722354, “7-Substituted 2-Nitro-5,6-dihydroimidazo[2,1-b][1,3]oxazines: Novel Antitubercular Agents Lead to a New Preclinical Candidate for Visceral Leishmaniasis” (Journal of Medicinal Chemistry, 2017)
